In one series the target is HSV polymerase (Human herpesvirus 1, UniProt P04293). Kind of series: HSV polymerase assay (Table 1, Polymerase IC50). In kind it is biochemical. The following applies: modified polymerase SPA assay.
In a further series the target is T1, HCMV polymerase (Human cytomegalovirus, UniProt P08546).
T1 construct: made in house; host or cells: recombinant baculovirus-infected SF-9 cells
Kind of series: HCMV polymerase assay (scintillation proximity assay, modified version). In kind it is biochemical. As to conditions: for IC50: modified HCMV polymerase SPA assay, compounds diluted in 100% DMSO, 4.5 mM DTT. On the procedure:
The HCMV polymerase assay is performed using a scintillation proximity assay (SPA) as described in several references, such as N. D. Cook, et al., Pharmaceutical Manufacturing International, pages 49-53 (1992); K. Takeuchi, Laboratory Practice, September issue (1992); U.S. Pat. No. 4,568,649 (1986); which are incorporated by reference herein. Reactions are performed in 96-well plates. The assay is conducted in 100 μl volume with 5.4 mM HEPES (pH 7.5), 11.7 mM KCl, 4.5 mM MgCl2, 0.36 mg/ml BSA, and 90 nM ^3H-dTTP. Assays are run with and without CHAPS, (3-[(3-cholamidopropyl)-dimethylammonio]-1-propane-sulfonate) at a final concentration of 2 mM. HCMV polymerase is diluted in enzyme dilution buffer containing 50% glycerol, 250 mM NaCl, 10 mM HEPES (pH 7.5), 100 μg/ml BSA, and 0.01% sodium azide. The HCMV polymerase, which is expressed in recombinant baculovirus-infected SF-9 cells and purified according to literature procedures, is added at 10% (or 10 μl) of the final reaction volume, i.e., 100 μl. Compounds are diluted in 50% DMSO and 10 μl are added to each well. Control wells contain an equivalent concentration of DMSO. Unless noted otherwise, reactions are initiated via the addition of 6 nM biotinylated poly(dA)-oligo(dT) template/primer to reaction mixtures containing the enzyme, substrate, and compounds of interest. Plates are incubated in a 25° C. or 37° C. H2O bath and terminated via the addition of 40 μl/reaction of 0.5 M EDTA (pH 8) per well. Reactions are terminated within the time-frame during which substrate incorporation is linear and varied depending upon the enzyme and conditions used, i.e., 30 min. for HCMV polymerase. Ten μl of streptavidin-SPA beads (20 mg/ml in PBS/10% glycerol) are added following termination of the reaction. Plates are incubated 10 min. at 37° C., then equilibrated to room temperature, and counted on a Packard Topcount. Linear regressions are performed and IC50's are calculated using computer software.
A modified version of the above HCMV polymerase assay is performed as described above, but with the following changes: Compounds are diluted in 100% DMSO until final dilution into assay buffer. In the previous assay, compounds are diluted in 50% DMSO. 4.5 mM dithiotherotol (DTT) is added to the polymerase buffer. […] All results are listed as Polymerase IC50 (μM) values. In Table 1, the term “nd” refers to activity data not determined.
In general terms: SPA uses beads or plates that emit light when radiolabelled molecules are held near them.

A further series concerns the target VZV polymerase (Varicella-zoster virus, UniProt P09252). Kind of series: VZV polymerase assay (Table 1, Polymerase IC50). In kind it is biochemical. As to conditions: modified polymerase SPA assay.

T1 sequence (P08546 whole entry): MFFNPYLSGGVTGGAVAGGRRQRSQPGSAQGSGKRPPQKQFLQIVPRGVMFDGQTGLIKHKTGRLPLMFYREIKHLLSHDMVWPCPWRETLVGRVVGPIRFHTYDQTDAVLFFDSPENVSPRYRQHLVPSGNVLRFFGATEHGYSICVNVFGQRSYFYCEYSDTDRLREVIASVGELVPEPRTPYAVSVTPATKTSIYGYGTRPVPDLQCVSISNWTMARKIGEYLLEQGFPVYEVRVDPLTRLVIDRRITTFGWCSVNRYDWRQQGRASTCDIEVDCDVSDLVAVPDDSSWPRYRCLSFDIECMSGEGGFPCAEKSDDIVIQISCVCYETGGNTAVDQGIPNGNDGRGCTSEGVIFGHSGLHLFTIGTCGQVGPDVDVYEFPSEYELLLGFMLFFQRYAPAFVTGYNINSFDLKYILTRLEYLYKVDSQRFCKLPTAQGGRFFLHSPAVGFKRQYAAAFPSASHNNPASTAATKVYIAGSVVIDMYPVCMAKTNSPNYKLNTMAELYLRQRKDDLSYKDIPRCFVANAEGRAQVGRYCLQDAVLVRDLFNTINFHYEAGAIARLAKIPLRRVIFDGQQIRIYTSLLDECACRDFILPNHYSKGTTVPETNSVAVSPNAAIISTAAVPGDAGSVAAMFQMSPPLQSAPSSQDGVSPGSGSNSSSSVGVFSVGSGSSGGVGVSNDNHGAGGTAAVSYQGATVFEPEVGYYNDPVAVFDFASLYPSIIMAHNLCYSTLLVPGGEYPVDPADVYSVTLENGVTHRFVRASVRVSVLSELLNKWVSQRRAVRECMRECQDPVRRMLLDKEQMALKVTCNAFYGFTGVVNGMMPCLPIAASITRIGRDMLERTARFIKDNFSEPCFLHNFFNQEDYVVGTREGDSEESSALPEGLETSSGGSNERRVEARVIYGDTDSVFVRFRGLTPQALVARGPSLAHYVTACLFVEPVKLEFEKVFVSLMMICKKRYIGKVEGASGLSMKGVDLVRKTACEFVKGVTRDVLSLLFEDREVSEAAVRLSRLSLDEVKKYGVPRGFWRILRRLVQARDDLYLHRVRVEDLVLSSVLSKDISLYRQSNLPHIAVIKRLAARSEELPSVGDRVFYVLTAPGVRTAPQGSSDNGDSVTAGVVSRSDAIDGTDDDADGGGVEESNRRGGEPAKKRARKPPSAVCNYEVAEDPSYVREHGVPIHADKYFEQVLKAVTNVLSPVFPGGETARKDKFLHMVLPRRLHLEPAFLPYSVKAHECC
Chain of VZV polymerase (P09252 whole entry): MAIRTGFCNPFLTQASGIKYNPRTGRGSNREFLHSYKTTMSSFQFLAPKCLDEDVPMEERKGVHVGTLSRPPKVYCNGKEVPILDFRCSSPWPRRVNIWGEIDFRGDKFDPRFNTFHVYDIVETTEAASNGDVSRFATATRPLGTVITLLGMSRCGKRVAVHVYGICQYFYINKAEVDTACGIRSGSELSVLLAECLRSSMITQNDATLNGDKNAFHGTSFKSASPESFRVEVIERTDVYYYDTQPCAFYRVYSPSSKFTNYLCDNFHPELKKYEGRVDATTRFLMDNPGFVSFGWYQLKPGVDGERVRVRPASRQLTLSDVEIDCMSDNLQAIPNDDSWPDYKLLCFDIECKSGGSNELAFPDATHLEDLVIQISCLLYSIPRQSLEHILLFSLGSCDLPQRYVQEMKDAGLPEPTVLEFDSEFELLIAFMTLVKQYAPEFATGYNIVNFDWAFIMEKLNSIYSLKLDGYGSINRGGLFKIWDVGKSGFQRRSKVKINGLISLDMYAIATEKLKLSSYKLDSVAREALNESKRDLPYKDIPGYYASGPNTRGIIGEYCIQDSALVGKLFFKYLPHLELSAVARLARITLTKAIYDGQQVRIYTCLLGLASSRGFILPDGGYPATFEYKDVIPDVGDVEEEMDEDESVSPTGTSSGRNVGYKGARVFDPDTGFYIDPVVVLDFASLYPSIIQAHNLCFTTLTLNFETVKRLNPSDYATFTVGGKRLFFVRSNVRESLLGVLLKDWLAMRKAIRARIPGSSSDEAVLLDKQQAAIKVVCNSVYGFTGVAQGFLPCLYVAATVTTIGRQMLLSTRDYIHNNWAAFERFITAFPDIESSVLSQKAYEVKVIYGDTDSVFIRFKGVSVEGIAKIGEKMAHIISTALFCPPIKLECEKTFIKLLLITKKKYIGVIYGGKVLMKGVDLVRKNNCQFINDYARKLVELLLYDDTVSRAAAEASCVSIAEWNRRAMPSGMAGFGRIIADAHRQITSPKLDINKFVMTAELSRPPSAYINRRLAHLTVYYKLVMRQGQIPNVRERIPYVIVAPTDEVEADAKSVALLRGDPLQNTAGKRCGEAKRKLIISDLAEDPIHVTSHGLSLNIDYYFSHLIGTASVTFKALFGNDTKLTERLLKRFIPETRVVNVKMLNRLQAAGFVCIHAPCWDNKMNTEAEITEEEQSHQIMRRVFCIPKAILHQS
Chain of HSV polymerase (P04293 whole entry): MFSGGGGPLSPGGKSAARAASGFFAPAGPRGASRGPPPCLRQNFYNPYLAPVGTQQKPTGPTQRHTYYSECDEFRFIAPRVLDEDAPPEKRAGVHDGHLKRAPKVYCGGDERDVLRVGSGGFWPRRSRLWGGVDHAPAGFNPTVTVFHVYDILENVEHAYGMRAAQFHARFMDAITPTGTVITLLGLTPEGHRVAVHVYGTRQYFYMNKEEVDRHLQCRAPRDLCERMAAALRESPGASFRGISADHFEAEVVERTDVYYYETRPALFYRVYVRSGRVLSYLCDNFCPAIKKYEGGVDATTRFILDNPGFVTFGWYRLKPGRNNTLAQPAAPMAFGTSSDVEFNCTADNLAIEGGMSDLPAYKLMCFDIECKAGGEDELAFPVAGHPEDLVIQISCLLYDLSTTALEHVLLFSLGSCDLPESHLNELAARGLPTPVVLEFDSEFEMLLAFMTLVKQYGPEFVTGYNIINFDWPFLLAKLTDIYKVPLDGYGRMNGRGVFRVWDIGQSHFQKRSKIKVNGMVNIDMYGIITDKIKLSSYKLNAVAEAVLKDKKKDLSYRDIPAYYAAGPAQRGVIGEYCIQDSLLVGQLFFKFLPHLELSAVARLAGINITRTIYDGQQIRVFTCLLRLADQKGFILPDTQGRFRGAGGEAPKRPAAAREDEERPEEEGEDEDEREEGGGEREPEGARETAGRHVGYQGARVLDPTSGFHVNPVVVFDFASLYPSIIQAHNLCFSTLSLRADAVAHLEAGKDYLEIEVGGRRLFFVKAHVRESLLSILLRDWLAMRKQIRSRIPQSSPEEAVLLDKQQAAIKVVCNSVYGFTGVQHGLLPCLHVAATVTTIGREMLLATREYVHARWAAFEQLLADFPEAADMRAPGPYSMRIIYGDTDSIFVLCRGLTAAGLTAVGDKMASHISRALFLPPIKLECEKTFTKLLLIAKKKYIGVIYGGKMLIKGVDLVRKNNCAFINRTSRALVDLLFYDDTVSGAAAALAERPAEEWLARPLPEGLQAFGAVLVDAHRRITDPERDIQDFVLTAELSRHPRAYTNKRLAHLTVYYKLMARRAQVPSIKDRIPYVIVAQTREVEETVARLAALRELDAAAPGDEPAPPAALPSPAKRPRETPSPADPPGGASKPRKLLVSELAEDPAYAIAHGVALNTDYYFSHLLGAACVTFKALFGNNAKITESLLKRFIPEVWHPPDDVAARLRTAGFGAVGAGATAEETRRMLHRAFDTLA

For the compound `Cc1nc2c(cc1C#CCO)c(=O)c(C(=O)NCc1ccc(Cl)cc1)cn2C` [Example 2, N-(4-chlorobenzyl)-6-(3-hydroxy-1-propynyl)-1,7-dimethyl-4-oxo-1,4-dihydro[1,8]naphthyridine-3-carboxamide], the melting point was 217 to 218 °C. The compound also came in with a half-inhibitory concentration (IC50) against HSV polymerase of 1900 nM. On HCMV polymerase, the midpoint of inhibition, the IC50, lay at 1800 nM. Also, at VZV polymerase, the IC50 worked out at 1100 nM. Regarding `COc1nc2c(cc1I)c(=O)c(C(=O)NCc1ccc(Cl)cc1)cn2C` [Example 4, N-(4-Chlorobenzyl)-6-iodo-7-methoxy-1-methyl-4-oxo-1,4-dihydro[1,8]naphthyridine-3-carboxamide], on HCMV polymerase, the IC50 came out at 22300 nM. On the same count and under the same terms, with `Cn1cc(C(=O)NCc2ccc(Cl)cc2)c(=O)c2ccc(=O)[nH]c21` [Example 5, N-(4-Chlorobenzyl)-1-methyl-4,7-dioxo-1,4,7,8-tetrahydro[1,8]naphthyridine-3-carboxamide] the figure was 17100 nM; with `COc1nc2c(cc1C#CCO)c(=O)c(C(=O)NCc1ccc(Cl)cc1)cn2C` [Example 6, N-(4-chlorobenzyl)-6-(3-hydroxy-1-propynyl)-7-methoxy-1-methyl-4-oxo-1,4-dihydro[1,8]naphthyridine-3-carboxamide], 1170 nM. In turn, `Cc1nc2c(cc1Br)c(=O)c(C(=O)NCc1ccc(Cl)cc1)cn2C` [Example 1, 6-bromo-N-(4-chlorobenzyl)-1,7-dimethyl-4-oxo-1,4-dihydro[1,8]naphthyridine-3-carboxamide] came in with a melting point of 266 to 268 °C. Regarding `COc1nc2c(cc1CCCO)c(=O)c(C(=O)NCc1ccc(Cl)cc1)cn2C` [Example 7, N-(4-Chlorobenzyl)-6-(3-hydroxypropyl)-7-methoxy-1-methyl-4-oxo-1,4-dihydro[1,8]naphthyridine-3-carboxamide], the concentration for half-maximal inhibition (IC50) at HCMV polymerase was 460 nM. Regarding `CCOC(=O)c1cc2c(=O)c(C(=O)NCc3ccc(Cl)cc3)cn(C)c2nc1OC` [Example 8, Ethyl 6-{[(4-chlorobenzyl)amino]carbonyl}-2-methoxy-8-methyl-5-oxo-5,8-dihydro[1,8]naphthyridine-3-carboxylate], the inhibition at 20 µM on HCMV polymerase (at 20 μM) was 37%. On to `Cc1nc2c(cc1CCCO)c(=O)c(C(=O)NCc1ccc(Cl)cc1)cn2C` [Example 3, N-(4-chlorobenzyl)-6-(3-hydroxypropyl)-1,7-dimethyl-4-oxo-1,4-dihydro[1,8]naphthyridine-3-carboxamide], for which the melting point is 176 to 177 °C. At HSV polymerase, this compound had an IC50 of 2400 nM. Moreover, the midpoint of inhibition against HCMV polymerase, the IC50, lay at 2700 nM. Further, at VZV polymerase, the IC50 amounted to 1400 nM.

A word on the IC50: it is the concentration at which inhibition is half-maximal. Read a low IC50 as inhibition by little substance. As usually defined, the melting point is the temperature, or range, at which the solid turns liquid. In general, inhibition refers to the percentage by which the read-out fell short of the control.

Source of the values: patent US6693114B2, “4-oxo-1,4-dihydro[1,8]naphthyridine-3-carboxamides as antiviral agents” (Pharmacia & Upjohn Company, priority 2000, dated 2004).
